The molecules below were run against T1, glucosylceramide synthase (Homo sapiens, UniProt Q16739) (assay: Glucosylceramide synthase (GCS) enzyme assay, microsome fraction, C8 glucosylceramide quantified by Rapidfire MS/MS). Settings: test compound 10 μM; 1.7 μM UDP-glucose, 3 μM C8 ceramide; room temperature 60 min.
T1 construct: made in house; host or cells: Expi293F cells (transient expression, pcDNA3.3-TOPO vector); microsome fraction used as enzyme source
T1 sequence (Q16739 1-394): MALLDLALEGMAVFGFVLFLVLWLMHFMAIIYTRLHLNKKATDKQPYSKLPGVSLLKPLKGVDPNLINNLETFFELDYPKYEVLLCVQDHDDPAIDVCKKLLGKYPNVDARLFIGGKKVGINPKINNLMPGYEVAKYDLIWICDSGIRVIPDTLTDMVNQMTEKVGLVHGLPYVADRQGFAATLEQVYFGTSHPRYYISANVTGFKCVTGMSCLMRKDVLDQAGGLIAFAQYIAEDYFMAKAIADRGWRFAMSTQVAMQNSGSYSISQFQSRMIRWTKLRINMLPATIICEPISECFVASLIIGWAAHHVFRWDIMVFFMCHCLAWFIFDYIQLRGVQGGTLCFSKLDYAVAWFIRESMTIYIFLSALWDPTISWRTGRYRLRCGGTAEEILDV
Format: biochemical
Method in brief: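 Test compound, 10 μM final, was run against human GCS from transfected Expi293F microsome fractions, using substrate solution of 6 μM C8 ceramide (in DOPC liposomes) plus 3.4 μM UDP-glucose, pH 7.5 Tris buffer, 60 min, room temperature. Product C8 glucosylceramide measured by Rapidfire MS/MS against an internal standard, % inhibition referenced to no-enzyme and DMSO wells.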

GCS enzyme inhibitory rate at 10 μM (%) (% of control) | SMILES
99% | Cc1cncc(OCC(F)(F)F)c1-c1nccc2c1CN(c1ccc(OC(F)F)cc1)C2=O [Example 198, 2-[4-(difluoromethoxy)phenyl]-4-[3-methyl-5-(2,2,2-trifluoroethoxy)pyridin-4-yl]-2,3-dihydro-1H-pyrrolo[3,4-c]pyridin-1-one]

Same assay, conditions: test compound 10 μM; 1.7 μM UDP-glucose, 3 μM C8 ceramide; room temperature 60 min; read-out: GCS enzyme inhibitory rate at 10 μM (%) (% of control)

SMILES | inhibition at 10 µM
CCC(=O)c1ccc(N2Cc3c(ccnc3-c3ccc(F)cc3OCC(F)(F)F)C2=O)cc1 [Example 189, 4-[4-fluoro-2-(2,2,2-trifluoroethoxy)phenyl]-2-(4-propanoylphenyl)-2,3-dihydro-1H-pyrrolo[3,4-c]pyridin-1-one] | 94%
CCC(=O)c1ccc(N2Cc3c(ccnc3-c3ccccc3OCC(F)(F)F)C2=O)cc1 [Example 190, 2-(4-propanoylphenyl)-4-[2-(2,2,2-trifluoroethoxy)phenyl]-2,3-dihydro-1H-pyrrolo[3,4-c]pyridin-1-one] | 98%
O=C1c2ccnc(-c3ccccc3OCC(F)(F)F)c2CN1c1ccc(C2(O)CCC2)cc1 [Example 191, 2-[4-(1-hydroxycyclobutyl)phenyl]-4-[2-(2,2,2-trifluoroethoxy)phenyl]-2,3-dihydro-1H-pyrrolo[3,4-c]pyridin-1-one] | 100%
CC(C)(O)c1ccc(N2Cc3c(ncnc3-c3ccc(F)cc3OCC(F)(F)F)C2=O)cc1 [Example 192, 4-[4-fluoro-2-(2,2,2-trifluoroethoxy)phenyl]-6-[4-(2-hydroxypropan-2-yl)phenyl]-5,6-dihydro-7H-pyrrolo[3,4-d]pyrimidin-7-one] | 88%
Fc1ccc(N2Cc3cnn(-c4ccccc4OCC(F)(F)F)c3C2)cc1 [Example 193, 5-(4-fluorophenyl)-1-[2-(2,2,2-trifluoroethoxy)phenyl]-1,4,5,6-tetrahydropyrrolo[3,4-c]pyrazole] | 98%
O=C1c2ccnc(-c3ccc(F)cc3OCC(F)(F)F)c2CN1c1ccc(OCC2(F)COC2)cc1 [Example 194, 2-{4-[(3-fluorooxetan-3-yl)methoxy]phenyl}-4-[4-fluoro-2-(2,2,2-trifluoroethoxy)phenyl]-2,3-dihydro-1H-pyrrolo[3,4-c]pyridin-1-one] | 98%
CC(C)(O)COc1ccc(N2Cc3c(ccnc3-c3ccccc3OCC(F)(F)F)C2=O)cc1 [Example 195, 2-[4-(2-hydroxy-2-methylpropoxy)phenyl]-4-[2-(2,2,2-trifluoroethoxy)phenyl]-2,3-dihydro-1H-pyrrolo[3,4-c]pyridin-1-one] | 100%
Cn1cc2c(c(-c3ccc(F)cc3OCC(F)(F)F)c1=O)CN(c1ccc(OC(F)F)cc1)C2=O [Example 196, 2-[4-(difluoromethoxy)phenyl]-7-[4-fluoro-2-(2,2,2-trifluoroethoxy)phenyl]-5-methyl-1H-pyrrolo[3,4-c]pyridine-3,6(2H,5H)-dione] | 100%
CC(C)(O)c1ccc(N2Cc3c(ccnc3-c3ccc(F)cc3OCC(F)(F)F)C2=O)cn1 [Example 197, 4-[4-fluoro-2-(2,2,2-trifluoroethoxy)phenyl]-2-[6-(2-hydroxypropan-2-yl)pyridin-3-yl]-2,3-dihydro-1H-pyrrolo[3,4-c]pyridin-1-one] | 88%
O=C1c2ccnc(-c3ccc(F)cc3OCC(F)(F)F)c2CN1c1ccc(C2(O)COC2)cn1 [Example 199, 4-[4-fluoro-2-(2,2,2-trifluoroethoxy)phenyl]-2-[5-(3-hydroxyoxetan-3-yl)pyridin-2-yl]-2,3-dihydro-1H-pyrrolo[3,4-c]pyridin-1-one] | 91%
CC(C)(O)c1ccc(N2Cc3c(ncnc3-c3ccccc3OCC(F)(F)F)C2=O)cc1 [Example 200, 6-[4-(2-hydroxypropan-2-yl)phenyl]-4-[2-(2,2,2-trifluoroethoxy)phenyl]-5,6-dihydro-7H-pyrrolo[3,4-d]pyrimidin-7-one] | 95%
Cc1cccc(OCC(F)(F)F)c1-c1nccc2c1CN(c1ccc(S(=O)(=O)C(F)F)cc1)C2=O [Example 201, 2-[4-(difluoromethanesulfonyl)phenyl]-4-[2-methyl-6-(2,2,2-trifluoroethoxy)phenyl]-2,3-dihydro-1H-pyrrolo[3,4-c]pyridin-1-one] | 99%
O=C1c2ccnc(-c3ccc(F)cc3OCC(F)(F)F)c2CN1c1cnn(CC2(F)COC2)c1 [Example 202, 2-{1-[(3-fluorooxetan-3-yl)methyl]-1H-pyrazol-4-yl}-4-[4-fluoro-2-(2,2,2-trifluoroethoxy)phenyl]-2,3-dihydro-1H-pyrrolo[3,4-c]pyridin-1-one] | 95%
O=C1c2ccnc(-c3ccccc3OCC(F)(F)F)c2CN1c1ccc(C2(O)CCC2)nc1 [Example 203, 2-[6-(1-hydroxycyclobutyl)pyridin-3-yl]-4-[2-(2,2,2-trifluoroethoxy)phenyl]-2,3-dihydro-1H-pyrrolo[3,4-c]pyridin-1-one] | 98%

Other lines, results leading:

inhibition at 10 µM | SMILES
97% | CC1(Oc2ccc(N3Cc4c(ccnc4-c4ccccc4OCC(F)(F)F)C3=O)cn2)COC1 [Example 204, 2-{6-[(3-methyloxetan-3-yl)oxy]pyridin-3-yl}-4-[2-(2,2,2-trifluoroethoxy)phenyl]-2,3-dihydro-1H-pyrrolo[3,4-c]pyridin-1-one]
83% | Cn1nc(-c2ccccc2OCC(F)(F)F)c2c1CN(c1ccc(F)cc1)C2 [Example 205, 5-(4-fluorophenyl)-1-methyl-3-[2-(2,2,2-trifluoroethoxy)phenyl]-1,4,5,6-tetrahydropyrrolo[3,4-c]pyrazole]
66% | Cn1nc2c(c1-c1ccccc1OCC(F)(F)F)CN(c1ccc(F)cc1)C2 [Example 206, 5-(4-fluorophenyl)-2-methyl-3-[2-(2,2,2-trifluoroethoxy)phenyl]-2,4,5,6-tetrahydropyrrolo[3,4-c]pyrazole]
99% | CS(=O)(=O)c1ccc(N2Cc3cnn(-c4ccccc4OCC(F)(F)F)c3C2)cc1 [Example 207, 5-[4-(methanesulfonyl)phenyl]-1-[2-(2,2,2-trifluoroethoxy)phenyl]-1,4,5,6-tetrahydropyrrolo[3,4-c]pyrazole]
99% | O=C1c2ccnc(-c3ccc(F)cc3OCC(F)(F)F)c2CN1c1ccc(C2(O)CCOCC2)cc1 [Example 208, 4-[4-fluoro-2-(2,2,2-trifluoroethoxy)phenyl]-2-[4-(4-hydroxyoxatan-4-yl)phenyl]-2,3-dihydro-1H-pyrrolo[3,4-c]pyridin-1-one]
98% | O=C1C2=C(CN1c1ccc(OCC(F)(F)F)cc1)C(c1ccc(F)cc1OCC(F)(F)F)=NCCO2 [Example 209, 5-[4-fluoro-2-(2,2,2-trifluoroethoxy)phenyl]-7-[4-(2,2,2-trifluoroethoxy)phenyl]-2,3,6,7-tetrahydro-8H-pyrrolo[3,4-f][1,4]oxazepin-8-one]
99% | O=C1c2ccnc(-c3ccncc3OCC(F)(F)F)c2CN1c1ccc(C2(O)CCC2)cc1 [Example 210, 2-[4-(1-hydroxycyclobutyl)phenyl]-4-[3-(2,2,2-trifluoroethoxy)pyridin-4-yl]-2,3-dihydro-1H-pyrrolo[3,4-c]pyridin-1-one]
81% | O=C1CCCN1Cc1ccc(N2Cc3c(ccnc3-c3ccc(F)cc3OCC(F)(F)F)C2=O)cc1 [Example 211, 4-[4-fluoro-2-(2,2,2-trifluoroethoxy)phenyl]-2-{4-[(2-oxopyrrolidin-1-yl)methyl]phenyl}-2,3-dihydro-1H-pyrrolo[3,4-c]pyridin-1-one]
99% | CC(C)(O)c1ccc(N2Cc3c(ccnc3-c3ccc(F)cc3OCC(F)(F)F)C2=O)cc1F [Example 212, 2-[3-fluoro-4-(2-hydroxypropan-2-yl)phenyl]-4-[4-fluoro-2-(2,2,2-trifluoroethoxy)phenyl]-2,3-dihydro-1H-pyrrolo[3,4-c]pyridin-1-one]
94% | O=C1c2ccnc(-c3ccc(F)cc3OCC(F)(F)F)c2CN1c1cnn(CC2(F)CC2)c1 [Example 213, 2-{1-[(1-fluorocyclopropyl)methyl]-1H-pyrazol-4-yl}-4-[4-fluoro-2-(2,2,2-trifluoroethoxy)phenyl]-2,3-dihydro-1H-pyrrolo[3,4-c]pyridin-1-one]
100% | O=C1c2ccnc(-c3ccccc3OCC(F)(F)F)c2CN1c1ccc(C2(F)COC2)cc1 [Example 214, 2-[4-(3-fluorooxetan-3-yl)phenyl]-4-[2-(2,2,2-trifluoroethoxy)phenyl]-2,3-dihydro-1H-pyrrolo[3,4-c]pyridin-1-one]
93% | CS(=O)(=O)c1ccc(N2Cc3cnn(-c4ccccc4OCC(F)(F)F)c3C2)nc1 [Example 215, 5-[5-(methanesulfonyl)pyridin-2-yl]-1-[2-(2,2,2-trifluoroethoxy)phenyl]-1,4,5,6-tetrahydropyrrolo[3,4-c]pyrazole]
98% | N#Cc1ccc(N2Cc3cnn(-c4ccccc4OCC(F)(F)F)c3C2)nc1 [Example 216, 6-{1-[2-(2,2,2-trifluoroethoxy)phenyl]-4,6-dihydropyrrolo[3,4-c]pyrazol-5(1H)-yl}pyridine-3-carbonitrile]
98% | CN(C)C(=O)c1ccc(N2Cc3cnn(-c4ccccc4OCC(F)(F)F)c3C2)cc1 [Example 217, N,N-dimethyl-4-{1-[2-(2,2,2-trifluoroethoxy)phenyl]-4,6-dihydropyrrolo[3,4-c]pyrazol-5(1H)-yl}benzamide]
